Source: patent US20110207801A1, “Novel Genes, Compositions, and Methods for Modulating the Unfolded Protein Response” (University of Michigan, priority 2002, published 2011)

Assays:
hsp-3 = hsp-3 expression upon ER stress (Northern blot, quantitative Taqman RT-PCR); format: in vivo, C. elegans; conditions: wild-type 1.5 day-old L2 larvae, 4 hours
Method: (§1) For Northern analysis, mixed-stage nematodes grown in liquid culture were treated with 3 mM of DTT (Calbiochem) for up to 8 hours. Heat-shock treatment was performed at 30° C. for 1 hour. For single worm analysis, individual L2 larvae grown on plates were treated with 2.5 mM of DTT or 28 μg/ml of tunicamycin (Calbiochem) for 4 hours. To study survival to tunicamycin, gravid adults were allowed to lay eggs on plates containing tunicamycin (0 to 7.5 μg/ml) for 4 hours and then removed from the plates. Eggs were counted and studied 3 days later.
Total RNA preparation and Northern blot analysis was performed as described (Chen et al., 2000). The blot was hybridized sequentially with digoxigenin (DIG)-labeled DNA probes for hsp-3 and for 26S rRNA prepared with DIG-high prime labeling Kit (Roche).
Taqman RT-PCR was performed as described by Heid et al. (1996). The lack of DNA contamination in RNA preparations was confirmed by a 1000-fold decrease in quantitative PCR yield when reverse transcriptase was omitted. A unique sequence in the 3′UTR of act-1 and act-3 was amplified using Taqman PCR (primers act-F/act-R and act-probe). The primers (hsp-3-F/hsp-3-R) and the hsp-3-probe probe were used for detecting hsp-3 transcripts. The primers (hsp-4-F and hsp-4-R) and the hsp-4-probe probe were used for detecting hsp-4 transcripts. […]

hsp-4 = hsp-4 expression upon ER stress (quantitative Taqman RT-PCR); format: in vivo, C. elegans; conditions: wild-type 1.5 day-old L2 larvae, 4 hours
Method: as §1
Taqman RT-PCR was performed as described by Heid et al. (1996). The lack of DNA contamination in RNA preparations was confirmed by a 1000-fold decrease in quantitative PCR yield when reverse transcriptase was omitted. A unique sequence in the 3′UTR of act-1 and act-3 was amplified using Taqman PCR (primers act-F/act-R and act-probe). The primers (hsp-3-F/hsp-3-R) and the hsp-3-probe probe were used for detecting hsp-3 transcripts. The primers (hsp-4-F and hsp-4-R) and the hsp-4-probe probe were used for detecting hsp-4 transcripts. The relative expression of hsp-3 and hsp-4 was normalized to the average signals of act-1/act-3.

C. elegans = test: survival to tunicamycin (eggs laid on plates, studied after 3 days); format: in vivo; conditions: for animals arrested at or prior to the L3 stage / animals matured to the L4 stage or older / dead animals: after 3 days
Excerpt: Eggs from each strain were laid on plates containing different concentrations of tunicamycin, counted, and studied after 3 days. The number of eggs studied is listed above each column. The X-axis represents tunicamycin concentration. The total worm population was grouped into three fractions: animals that matured to L4 or older, animals that arrested at or prior to the L3 stage, and dead animals. Each fraction was plotted as the percentage of total eggs laid (Y-axis).
as §1

GRP94 mRNA = test: Northern blot analysis of GRP94 mRNA in MEFs; format: cell-based, mouse; conditions: 10 μg/ml, 6 hr
Method: (§2) FIGS. 12E and 12F depict a Northern blot analysis of wild-type and IRE1α-null MEFs. One blot was probed with [α-^32P]-labeled hamster BiP cDNA and β-actin cDNA (E) and another blot was probed with [α-^32P]-labeled mouse GRP94 DNA and β-actin cDNA (F).
(§3) Southern and Northern blot analysis followed standard procedures (Sambrook et al., 1989). [^32P]-labeled probes were prepared using a random prime labeling system (Amersham Pharmacia, Piscataway, N.J.). A 0.5-kb BamHI-XhoI fragment from the BS-mIRE1α targeting vector or a 3.6-kb EcoRI-XbaI fragment from pED-hIRE1α cDNA (Tirasophon et al., 2000) were used for Southern and Northern analysis, respectively. The probes for Northern analysis of mXbp1, BiP and GRP94 were a 0.94-kb XhoI fragment of pcDNA-mXbp1-u, the EcoRI-PstI fragment of hamster BiP (Ting et al., 1987), and a 146-bp PCR fragment of mouse GRP94 (from 142 to 287 of the coding region), respectively.

Xbp1 mRNA [1] = test: Northern blot analysis of Xbp1 mRNA in MEFs; format: cell-based, mouse; conditions: 10 μg/ml, 6 hr
Method: FIG. 15F depicts a Northern blot analysis of Xbp1 mRNA in IRE1α-null MEFs. Wild-type and IRE1α-null MEFs were treated with or without 10 μg/ml tunicamycin for 6 hr prior to harvesting total RNA for Northern blot analysis. The blots were probed with [α-^32P]-labeled 0.94-kb XhoI fragment of XBP1-u and [β-actin cDNA.
as §3

BiP mRNA [2] = test: Northern blot analysis of BiP mRNA in CHO cells; format: cell-based, Chinese hamster; conditions: 2 μg/ml, 16 hours
Method: (§4) FIG. 17E depicts a Northern blot analysis of BiP and Xbp1 mRNA in S2P-deficient cells. Wild-type and S2P-deficient CHO cells were treated with or without 2 μg/ml tunicamycin for 16 hours prior to harvesting total RNA for Northern blot analysis using hamster BiP, XBP1-u and β-actin cDNA as probes.
as §3

Xbp1 mRNA [3] = test: Northern blot analysis of Xbp1 mRNA in CHO cells; format: cell-based, Chinese hamster; conditions: 2 μg/ml, 16 hours
Method: as §4, §3

BiP mRNA [4] = test: Northern blot analysis of BiP mRNA in MEFs; format: cell-based, mouse; conditions: tunicamycin for 6 hr
Method: as §2, §3

IRE1 [5] = test: XBP1-EGFP reporter of IRE1 activation in COS-1 cells; format: cell-based, monkey; conditions: 10 ug/ml, after 8 and 16 hours
Excerpt: (§5) COS-1 monkey cells were transfected by either diethylaminoethyl (DEAE)-dextran (Kaufman, 1997) or Calcium Phosphate-BES methods (Ausubel et al, 1999). Chinese hamster ovary (CHO) cells were transfected by either lipofectAMINE PLUS (Life Technology) or FuGENE6 (Roche). Murine embryonic fibroblasts (MEFs) were transfected by either FuGENE6 (Roche) or Effectine (QIAGEN). IRE1 activation was monitored by immunoprecipitation and western analysis.
(§6) XBP1 splicing was also monitored by RT-PCR analysis of RNAs using primers designed to amplify the region encompassing the overlap between open reading frame 1 (ORF1) and ORF2 within XBP1 mRNA (see Lee et al., Genes and Dev. 2002). XBP1 splicing may also be monitored by assessing the expression of a reporter gene that is regulated by splicing of the XBP1 intron. The coding region of EGFP, Luciferase or β-galactosidase was fused to the mouse XBP1 ORF1 downstream of the XBP1 intron. Transcription of the construct is under control of the constitutively expressed CMV promoter. Therefore, expression of the XBP1-EGFP, XBP1-Luciferase or XBP1-β-galactosidase fusion protein is regulated by splicing of the XBP1 intron.
(§7) At 48 hours after transfection, cells were treated with 10 ug/ml tunicamycin to inhibit N-linked glycosylation. […] Therefore, this construct is instrumental in monitoring IRE1 activation.

IRE1 [6] = test: XBP1-EGFP reporter of IRE1 activation in murine embryonic fibroblast cells; format: cell-based
Excerpt: as §5, §6, §7

With `O[C@H](CS)[C@H](O)CS` (racemic) [DTT, dithiothreitol] the hsp-3 induction (hsp-3; DTT 2.5 mM) was about 9.3 fold and the hsp-4 induction (hsp-4; DTT 2.5 mM) was 61 fold.
In the case of tunicamycin, the hsp-3 induction (hsp-3; tunicamycin 28 μg/ml) is reported as about 3.9 fold, the hsp-4 induction (hsp-4; tunicamycin 28 μg/ml) is reported as 29 fold and the “animals arrested at or prior to the L3 stage” value (from here on “animals arrested at or prior”) (C. elegans; IRE1(v33) mutants, 2 μg/ml) is reported as 60%. The “animals matured to the L4 stage or older” value (C. elegans; IRE1(v33) mutants, 2 μg/ml) was 9%, the dead animals (C. elegans; IRE1(v33) mutants, 2 μg/ml) was 31% and the “animals arrested at or prior” value (C. elegans; N2, 5 μg/ml) was 29%. The “animals matured to the L4 stage or older” value (C. elegans; N2, 5 μg/ml) was 8%, the dead animals (C. elegans; N2, 5 μg/ml) was 63% and the “concentration at which growth of N2 animals was affected” value (C. elegans; N2, plates with 0 to 7.5 μg/ml) was at least 5 µg/mL. The “animals arrested at or prior” value (C. elegans; PEK1(ok275) mutants, 2 μg/ml) was 31%, the “animals matured to the L4 stage or older” value (C. elegans; PEK1(ok275) mutants, 2 μg/ml) was 35% and the dead animals (C. elegans; PEK1(ok275) mutants, 2 μg/ml) was 34%. The “GRP94 mRNA induction” value (GRP94 mRNA; IRE1α-null MEFs) was 5.4 fold, the “GRP94 mRNA induction” value (GRP94 mRNA; wild-type MEFs) was 6.7 fold and the “Xbp1 mRNA induction” value (Xbp1 mRNA [1]; IRE1α-null MEFs) was 4.0 fold. The “Xbp1 mRNA induction” value (Xbp1 mRNA [1]; wild-type MEFs) was 3.1 fold, the “BiP mRNA induction” value (BiP mRNA [2]; S2P-deficient CHO cells) was 2.6 fold and the “BiP mRNA induction” value (BiP mRNA [2]; wild-type CHO cells) was 34 fold. The “Xbp1 mRNA induction” value (Xbp1 mRNA [3]; S2P-deficient CHO cells) was 2.9 fold, the “Xbp1 mRNA induction” value (Xbp1 mRNA [3]; wild-type CHO cells) was 3.1 fold and the “reduction of BiP mRNA induction in IRE1α-null MEFs compared with wild-type” value (BiP mRNA [4]) was 10%. The “fluorescence of cells transfected with the XBP1-EGFP construct” value (IRE1 [5]) was “bright fluoresence”, the “fluorescence of cells expressing the XBP1-EGFP construct” value (IRE1 [6]; control murine embryonic fibroblast cells) was “intense fluorescsence” and the “fluorescence of cells expressing the XBP1-EGFP construct” value (IRE1 [6]; murine embryonic fibroblast cells deleted in both IRE1α alleles) was “no fluorescence was detected”.
